In patent US7566712B2, “Biaryl piperazinyl-pyridine analogues” (Neurogen Corporation, priority 2003, dated 2009):

biological target: T1, human capsaicin receptor (Homo sapiens, UniProt Q8NER1); assay: Calcium mobilization assay, determination of antagonist activity (Example 6); type: cell-based; conditions: Table II; IC50 determined as described in Example 6
T1 construct: pBK-CMV expression construct encoding the full length human capsaicin receptor; expressed in transfected cells
Procedure, shortened: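 Antagonism measured as inhibition of capsaicin-evoked (final concentration = EC50, from an 8-point 1 nM–3 μM curve) Fluo-3 calcium signal in stable hVR1-HEK293 cells. Test compounds at 1–5 μM final, 0.5–6 h dark preincubation at room temperature. IC50 = concentration giving 50% reduction versus agonist-only response.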

T1 sequence (Q8NER1 whole entry): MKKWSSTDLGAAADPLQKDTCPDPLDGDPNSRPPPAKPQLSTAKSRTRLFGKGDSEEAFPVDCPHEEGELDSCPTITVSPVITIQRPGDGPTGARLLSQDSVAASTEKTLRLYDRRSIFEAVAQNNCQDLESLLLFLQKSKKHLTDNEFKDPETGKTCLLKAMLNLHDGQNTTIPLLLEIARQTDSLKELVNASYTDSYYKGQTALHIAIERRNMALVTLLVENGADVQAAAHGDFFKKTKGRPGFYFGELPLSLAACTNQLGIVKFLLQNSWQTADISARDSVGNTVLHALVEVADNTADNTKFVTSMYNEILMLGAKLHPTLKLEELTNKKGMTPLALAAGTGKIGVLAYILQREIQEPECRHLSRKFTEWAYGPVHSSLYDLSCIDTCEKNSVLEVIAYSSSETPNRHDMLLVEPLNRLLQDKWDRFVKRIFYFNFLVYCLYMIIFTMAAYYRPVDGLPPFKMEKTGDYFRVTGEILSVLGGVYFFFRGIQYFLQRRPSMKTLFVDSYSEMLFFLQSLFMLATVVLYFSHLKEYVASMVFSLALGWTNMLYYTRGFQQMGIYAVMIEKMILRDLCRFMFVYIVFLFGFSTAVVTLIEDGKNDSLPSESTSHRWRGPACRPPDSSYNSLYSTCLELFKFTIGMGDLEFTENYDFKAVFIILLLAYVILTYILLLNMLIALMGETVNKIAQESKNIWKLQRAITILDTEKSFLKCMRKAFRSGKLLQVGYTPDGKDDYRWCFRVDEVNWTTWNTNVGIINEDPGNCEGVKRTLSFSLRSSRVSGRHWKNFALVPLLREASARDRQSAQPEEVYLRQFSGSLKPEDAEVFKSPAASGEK

IC50, ≤ 1 µM:
COCCOc1nc(-c2ccc(F)c(Cl)c2)cc(N2CCN(c3ncccc3C(F)(F)F)CC2)n1 [Example 554, 4-(3-chloro-4-fluorophenyl)-2-(2-methoxyethoxy)-6-{4-[3-(trifluoromethyl)pyridin-2-yl]piperazin-1-yl}pyrimidine]
Cc1cccnc1N1CCN(c2cc(-c3ccc(Cl)cc3)nc(N3CCOCC3)n2)[C@H](C)C1 [Example 483, 4-{4-(4-chlorophenyl)-6-[(2R)-2-methyl-4-(3-methylpyridin-2-yl)piperazin-1-yl]pyrimidin-2-yl}morpholine]
Cc1cccnc1N1CCN(c2cc(-c3cccc(C(C)C)c3)nc(N3CCOCC3)n2)[C@H](C)C1 [Example 500, 4-{4-(3-isopropylphenyl)-6-[(2R)-2-methyl-4-(3-methylpyridin-2-yl)piperazin-1-yl]pyrimidin-2-yl}morpholine]

same assay, conditions: Table II; IC50 determined as described in Example 6 (antagonist activity, calcium mobilization)

IC50, ≤ 1 µM:
CC1CCCN1c1nc(-c2ccc(F)cc2)cc(N2CCN(c3nc(C#N)ccc3C#N)C[C@H]2C)n1 (stereo in doubt) [Example 1014, 6-{4-[6-(4-fluorophenyl)-2-(2-methylpyrrolidin-1-yl)pyrimidin-4-yl]-3-methylpiperazin-1-yl}pyridine-2,5-dicarbonitrile]
CC1CCCN1c1nc(-c2ccc(F)c(Cl)c2)cc(N2CCN(c3ncccn3)CC2)n1 (centres unmarked) [Example 996, 4-(3-chloro-4-fluorophenyl)-2-(2-methylpyrrolidin-1-yl)-6-(4-pyrimidin-2-ylpiperazin-1-yl)pyrimidine]

same assay, conditions: Table II; determined as described in Example 6 (antagonist activity); "*" = 1 micromolar or less

IC50, ≤ 1 µM:
CC1CCN1c1nc(-c2cncc(Cl)c2)cc(N2CCN(c3ncccc3Cl)C[C@H]2C)n1 (some centres unmarked) [Example 855, 4-(5-chloropyridin-3-yl)-6-[4-(3-chloropyridin-2-yl)-2-methylpiperazin-1-yl]-2-(2-methylazetidin-1-yl)pyrimidine]
C[C@@H]1CN(c2ncccc2Cl)CCN1c1cc(-c2ccc(F)cc2)nc(S(C)(=O)=O)n1 (stereo in doubt) [Example 840, 4-[4-(3-chloropyridin-2-yl)-2-methylpiperazin-1-yl]-6-(4-fluorophenyl)-2-(methylsulfonyl)pyrimidine]
C[C@@H]1CN(c2nccnc2Cl)CCN1c1cc(-c2ccc(F)cc2)nc(Cl)n1 [Example 920, 2-chloro-4-[(2R)-4-(3-chloropyrazin-2-yl)-2-methylpiperazin-1-yl]-6-(4-fluorophenyl)pyrimidine]
C[C@@H]1CN(c2ncccc2Cl)CCN1c1cc(-c2ccc(Cl)c(F)c2)nc(N2CCCC2)n1 [Example 833, 4-(4-chloro-3-fluorophenyl)-6-[(2R)-4-(3-chloropyridin-2-yl)-2-methylpiperazin-1-yl]-2-pyrrolidin-1-ylpyrimidine]
C[C@@H]1CCCN1c1nc(-c2ccc(Cl)c(F)c2)cc(N2CCN(c3nccnc3Cl)C[C@@H]2C)n1 (relative stereo) [Example 969, rel-4-(4-chloro-3-fluorophenyl)-6-[(2R)-4-(3-chloropyrazin-2-yl)-2-methylpiperazin-1-yl]-2-[(2S)-2-methylpyrrolidin-1-yl]pyrimidine]
COc1ccc(-c2cc(N3CCN(c4ncccc4Cl)C[C@H]3C)nc(N3CCCC3)n2)cc1C [Example 809, 4-[(2R)-4-(3-chloropyridin-2-yl)-2-methylpiperazin-1-yl]-6-(4-methoxy-3-methylphenyl)-2-pyrrolidin-1-ylpyrimidine]
CC1CCCN1c1nc(-c2cncc(C#N)c2)cc(N2CCN(c3ncccc3C(F)(F)F)CC2)n1 (centres unmarked) [Example 887, 5-(2-(2-methylpyrrolidin-1-yl)-6-{4-[3-(trifluoromethyl)pyridin-2-yl]piperazin-1-yl}pyrimidin-4-yl)nicotinonitrile]
Cc1ccc(C)n1-c1nc(-c2ccc(C#N)cc2)cc(N2CCN(c3ncccc3Cl)C[C@H]2C)n1 [Example 874, 4-[6-[(2R)-4-(3-chloropyridin-2-yl)-2-methypiperazin-1-yl]-2-(2,5-dimethyl-1H-pyrrol-1-yl)pyrimidin-4-yl]benzonitrile]
CC1CCN1c1nc(-c2ccc(F)c(Cl)c2)cc(N2CCN(c3ncccc3C(F)(F)F)C[C@H]2C)n1 (stereo partly drawn) [Example 781, 4-(3-chloro-4-fluorophenyl)-2-(2-methylazetidin-1-yl)-6-{(2R)-2-methyl-4-[3-(trifluoromethyl)pyridin-2-yl]piperazin-1-yl}pyrimidine]

same assay, conditions: Table II; determined as described in Example 6; class symbol

IC50, ≤ 1 µM:
Cc1cccc(-c2nc(N3CCOCC3)nc(N3CCN(c4ccccn4)CC3)n2)c1 [Example 234]

same assay, conditions: determined as described in Example 6 (calcium mobilization, antagonist activity); Table II

IC50, ≤ 1 µM:
CCC1CCCCN1c1nc(-c2ccc(F)c(Cl)c2)cc(N2CCN(c3ncccc3C(F)(F)F)CC2)n1 (centres unmarked) [Example 613, 4-(3-chloro-4-fluorophenyl)-2-(2-ethylpiperidin-1-yl)-6-{4-[3-(trifluoromethyl)pyridin-2-yl]piperazin-1-yl}pyrimidine]
C[C@@H]1CN(c2ncccc2Cl)CCN1c1cc(-c2ccc(F)c(F)c2)nc(N2CCCCC2)n1 [Example 769, 4-{(2R)-4-(3-chloropyridin-2-yl)-2-methylpiperazin-1-yl]-6-(3,4-difluorophenyl)-2-piperidin-1-ylpyrimidine]
CS(=O)(=O)Nc1cccnc1N1CCN(c2cc(-c3ccc(F)c(Cl)c3)nc(N3CCOCC3)n2)CC1 [Example 588, N-(2-{4-[6-(3-chloro-4-fluorophenyl)-2-morpholin-4-ylpyrimidin-4-yl]piperazin-1-yl}pyridin-3-yl)methanesulfonamide]
Cc1cc(-c2cc(N3CCN(c4ncccc4C(F)(F)F)CC3)nc(N3CCCCS3(=O)=O)n2)ccc1F [Example 685, 2-(4-(4-fluoro-3-methylphenyl)-6-{4-[3-(trifluoromethyl)pyridin-2-yl]piperazin-1-yl}pyrimidin-2-yl)-1,2-thiazinane 1,1-dioxide]
CC1CCCN1c1nc(-c2ccc(F)c(Cl)c2)cc(N2CCN(c3ncccc3C#N)CC2)n1 (centres unmarked) [Example 709, 2-{4-[6-(3-chloro-4-fluorophenyl)-2-(2-methylpyrrolidin-1-yl)pyrimidin-4-yl]piperazin-1-yl}nicotirionitrile]
CCc1nccn1-c1nc(-c2cccc(Cl)c2)cc(N2CCN(c3ncccc3C(F)(F)F)CC2)n1 [Example 633, 4-(3-chlorophenyl)-2-(2-ethyl-1H-imidazol-1-yl)-6-{4-[3-(trifluoromethyl)pyridin-2-yl]peperazin-1-yl}pyrimidine]
COCCN(C)c1nc(-c2ccc(F)c(C)c2)cc(N2CCN(c3ncccc3C(F)(F)F)CC2)n1 [Example 737, 4-(4-fluoro-3-methylphenyl)-N-(2-methoxyethyl)-N-methyl-6-{4-[3-(trifluoromethyl)pyridin-2-yl]piperazin-1-yl}pyrimid in-2-amine]
CCN(CC)c1nc(-c2cc(C)nc(C)c2)cc(N2CCN(c3ncccc3C(F)(F)F)CC2)n1 [Example 591, 4-(2,6-dimethylpyridin-4-yl)-N,N-diethyl-6-{4-[3-(trifluoromethyl)pyridin-2-yl]piperazin-1-yl}pyrimidin-2-amine]
